Test results from PubChem BioAssay (NCI).
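1) Cells in 96-well plates. 2) Compound, 48 h, 5 concentrations. 3) Linear interpolation between surrounding doses. 4) Unreached endpoint = highest concentration. TGI denotes the concentration required for complete inhibition of growth.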

Columns and labels:
Test in all cases: inhibition of tumour cell growth, NCI panel, 48 h
[1] = tested on: DU-145 prostate
[2] = tested on: OVCAR-4 ovarian
[3] = tested on: OVCAR-5 ovarian
[4] = tested on: SK-MEL-28 melanoma
[5] = tested on: CCRF-CEM leukemia
[6] = tested on: SF-539 CNS
[7] = tested on: HT29 colon
[8] = tested on: BT-549 breast
[9] = tested on: MCF7 breast
[10] = tested on: SK-OV-3 ovarian

## Cc1ccc(NC(=O)C(Cc2c[nH]c3ccccc23)NC(=O)Oc2ccccc2)cc1C (stereo not given)
[1]
  TGI: > 100 µM
[2]
  TGI: > 100 µM
[3]
  TGI: > 100 µM
[4]
  TGI: > 100 µM
[5]
  TGI: > 100 µM
[6]
  TGI: > 100 µM
[7]
  TGI: > 100 µM
[8]
  TGI: > 100 µM
[9]
  TGI: > 100 µM
[10]
  TGI: > 100 µM

## COC12CCCN1c1ccn(Cc3ccccc3)c(=O)c1C2=O (stereo not given)
[1]
  TGI: > 100 µM
[2]
  TGI: > 100 µM
[3]
  TGI: > 100 µM
[4]
  TGI: > 100 µM
[5]
  TGI: > 100 µM
[6]
  TGI: > 100 µM
[7]
  TGI: > 100 µM
[8]
  TGI: > 100 µM
[9]
  TGI: > 100 µM
[10]
  TGI: > 100 µM

## Fc1ccc(N=C/C=C/Nc2ccc(F)cc2)cc1
[1]
  TGI: 26.7 µM
[2]
  TGI: 29.8 µM
[3]
  TGI: 25.3 µM
[4]
  TGI: 22 µM
[5]
  TGI: > 51.3 µM
[6]
  TGI: 27.2 µM
[7]
  TGI: 24.2 µM
[8]
  TGI: 27.4 µM
[9]
  TGI: 28.3 µM
[10]
  TGI: 28.8 µM

## COC(=O)C1=C(OC(=O)/C=C/c2ccccc2)C(C(=O)OC)[C@@]2(O)[C@@H](C(=O)OC)[C@H](C)C[C@@H]1[C@@H]2C(=O)OC (stereo not given in full)
[1]
  TGI: > 100 µM
[2]
  TGI: > 100 µM
[3]
  TGI: 46.1 µM
[4]
  TGI: > 100 µM
[5]
  TGI: > 100 µM
[6]
  TGI: 52.6 µM
[7]
  TGI: > 100 µM
[8]
  TGI: 56.1 µM
[9]
  TGI: 91.4 µM
[10]
  TGI: 70.2 µM

## O=c1sc2c(s1)-c1sc(=O)sc1SS2
[1]
  TGI: > 89.8 µM
[2]
  TGI: > 100 µM
[3]
  TGI: > 75.3 µM
[4]
  TGI: > 100 µM
[5]
  TGI: > 96 µM
[6]
  TGI: 99.1 µM
[7]
  TGI: > 56.9 µM
[8]
  TGI: > 100 µM
[9]
  TGI: > 100 µM
[10]
  TGI: > 100 µM

## COc1cc2cc(C(=O)N3CC(CCl)c4c3cc(NC(=O)OCc3ccc([N+](=O)[O-])cc3)c3ccccc43)[nH]c2c(OC)c1OC (stereo not given)
[1]
  TGI: 18 µM
[2]
  TGI: > 100 µM
[3]
  TGI: > 100 µM
[4]
  TGI: > 100 µM
[5]
  TGI: > 57.6 µM
[6]
  TGI: > 100 µM
[7]
  TGI: > 100 µM
[8]
  TGI: > 100 µM
[9]
  TGI: > 100 µM
[10]
  TGI: > 100 µM

## c1ccc(CN[C@]23C4C5CC6C7C5C2C7[C@@](NCc2ccccc2)(C64)N3Cc2ccccc2)cc1 (stereo not given in full)
[1]
  TGI: > 100 µM
[2]
  TGI: > 100 µM
[3]
  TGI: > 100 µM
[4]
  TGI: > 100 µM
[5]
  TGI: > 100 µM
[6]
  TGI: > 100 µM
[7]
  TGI: > 100 µM
[8]
  TGI: > 100 µM
[9]
  TGI: > 100 µM
[10]
  TGI: > 100 µM

## CSC1C(=O)Nc2ccc3ccccc3c21 (stereo not given)
[1]
  TGI: > 100 µM
[2]
  TGI: 39.9 µM
[3]
  TGI: > 100 µM
[4]
  TGI: > 100 µM
[5]
  TGI: 89.3 µM
[6]
  TGI: 45.7 µM
[7]
  TGI: > 100 µM
[8]
  TGI: 50.7 µM
[9]
  TGI: > 100 µM
[10]
  TGI: > 100 µM

## COc1cc(C2=NNC(=O)c3ccccc3N2c2nc(-c3cccs3)nc3ccc(Br)cc23)cc(OC)c1OC
[1]
  TGI: 87.9 µM
[2]
  TGI: 86.4 µM
[3]
  TGI: > 100 µM
[4]
  TGI: 32.3 µM
[5]
  TGI: > 100 µM
[6]
  TGI: 24.2 µM
[7]
  TGI: 35.9 µM
[8]
  TGI: > 100 µM
[9]
  TGI: 7.28 µM
[10]
  TGI: > 100 µM

## Cc1ccc(C(=O)N(Cc2ccccc2)Cc2ccccc2)cc1N=NN(C)C
[1]
  TGI: > 100 µM
[2]
  TGI: > 87.4 µM
[3]
  TGI: > 100 µM
[4]
  TGI: > 69.7 µM
[5]
  TGI: > 100 µM
[6]
  TGI: 44.9 µM
[7]
  TGI: 21.3 µM
[8]
  TGI: 45.6 µM
[9]
  TGI: 65.9 µM
[10]
  TGI: 99.2 µM

## CCOC(=O)c1sc2nc(SC)nc3c2c1NCN3c1ccc(F)c(F)c1
[1]
  TGI: > 100 µM
[2]
  TGI: 17.7 µM
[3]
  TGI: > 100 µM
[4]
  TGI: > 100 µM
[5]
  TGI: > 100 µM
[6]
  TGI: 11.7 µM
[7]
  TGI: > 100 µM
[8]
  TGI: > 66.5 µM
[9]
  TGI: > 100 µM
[10]
  TGI: 43.5 µM

## COc1ccc(NC(=O)CC(=O)n2nc(C)c(N=Nc3cccc(C)c3)c2C)cc1
[1]
  TGI: > 100 µM
[2]
  TGI: > 100 µM
[3]
  TGI: > 100 µM
[4]
  TGI: > 100 µM
[5]
  TGI: > 100 µM
[6]
  TGI: > 100 µM
[7]
  TGI: > 100 µM
[8]
  TGI: > 100 µM
[9]
  TGI: > 100 µM
[10]
  TGI: 78.7 µM

## COc1ccc(/C=C/C(=O)c2cc(C(C)(C)C)c(O)c(C(C)(C)C)c2)cc1OC
[1]
  TGI: > 70.3 µM
[2]
  TGI: > 92.9 µM
[3]
  TGI: > 85.8 µM
[4]
  TGI: > 100 µM
[5]
  TGI: 11.8 µM
[6]
  TGI: 52.1 µM
[7]
  TGI: 60 µM
[8]
  TGI: > 77.6 µM
[9]
  TGI: 32.4 µM
[10]
  TGI: > 100 µM

## CCCCCc1nnc(NS(=O)(=O)c2ccc(NC(=O)OCC(C)C)cc2)s1
[1]
  TGI: > 100 µM
[2]
  TGI: 56.5 µM
[3]
  TGI: > 100 µM
[4]
  TGI: 95.5 µM
[5]
  TGI: 77.1 µM
[6]
  TGI: 64.2 µM
[7]
  TGI: 46.1 µM
[8]
  TGI: > 100 µM
[9]
  TGI: > 100 µM
[10]
  TGI: > 100 µM

## C(=N\Nc1ccc(-c2nc3ccccc3[nH]2)cc1)/c1c(-c2ccc(Cc3ccccc3)cc2)[nH]c2ccccc12
[1]
  TGI: > 80.8 µM
[2]
  TGI: > 93.6 µM
[3]
  TGI: > 100 µM
[4]
  TGI: > 100 µM
[5]
  TGI: > 100 µM
[6]
  TGI: 44.6 µM
[7]
  TGI: > 57.9 µM
[8]
  TGI: 38 µM
[9]
  TGI: > 48.8 µM
[10]
  TGI: > 100 µM

## CC1=NN(C(=O)CC(=O)Nc2ccccc2Cl)C(=O)C1N=Nc1ccc(S(=O)(=O)c2ccc(N=NC3C(=O)N(C(=O)CC(=O)Nc4ccccc4Cl)N=C3C)cc2)cc1 (stereo not given)
[1]
  TGI: > 100 µM
[2]
  TGI: > 100 µM
[3]
  TGI: > 100 µM
[4]
  TGI: > 100 µM
[5]
  TGI: > 100 µM
[6]
  TGI: > 100 µM
[7]
  TGI: > 100 µM
[8]
  TGI: > 100 µM
[9]
  TGI: > 100 µM
[10]
  TGI: > 100 µM
